Laboratory results from patent publication US20030180260A1, “Immunotherapy or treating bacterial or viral infection at mucosal surfaces with probiotics, and compositions therefor” (priority 2000, published 2003).
Marks after values point to notes of the source that are not given here.

Assays:
C albicans = test: Clearance of C. albicans in mice treated with NO synthase inhibitor; format: in vivo; details: ip daily for 3 days after infection; two mouse strains (H2d); FIG. 9
Experimental: To identify the immune parameters of protection, the levels of IFN-γ were determined at various times following infection with C. albicans. […] Since nitric oxide production is associated with host defence in parasitic infection, quantitation of NO was performed following infection in two mouse strains sharing the same H2d MHC haplotype. In this experiment mice were infected with C albicans and then followed by ip injection with an inhibitor of NO synthase, by injecting NG-monomethyl-L-arginine monoacetate (MNLA) daily for 3 days after which time the clearance rate of yeasts was determined.

Helicobacter pylori = test: Metronidazole therapy of H. pylori infection in mice pre-treated with probiotic; format: in vivo; details: for H. pylori colonisation: L acidophilus 1×10^9 orally 3 times a week for 2 weeks, Metronidazole 0.08 mg/animal for 1 week; for % eradication: compared with saline-treated control group
Experimental: H. pylori infected mice (5 per group) were treated with Lactobacillus acidophilus (1×10^9 per animal) by oral feeding 3 times a week for 2 weeks prior to treatment with Metronidazole (0.08 mg/animal) for 1 week.

Candida albicans = test: Resistance to oral C. albicans infection following feeding with probiotic bacteria; format: in vivo, DBA/2 mice; details: 5×10^9 intragastrically every 2 days for 2 weeks
Experimental: (§1) DBA/2 mice H2d male mice (n=3-5 per group) were fed intragastrically every 2 days for 2 weeks with 5×10^9 L. acidophilus in 0.2 mL PBS. One day after the last feed mice were challenged with 10^8 Candida albicans blastospores by swabbing the oral cavity using a fine-tip sterile swab. At various days after infection the number of C. albicans in the oral mucosa was determined. The oral cavity (cheek, tongue and soft palate) was completely swabbed using a fine-tipped cotton swab. The cotton swab was placed in 1 mL PBS and the yeast cells were resuspended by mixing in a vortex mixer before culture of serial 10-fold dilutions on Sabourand dextrose agar supplemented with chloramphenicol at 37° C. The results were expressed as CFU/mL (FIG. 5)

H influenzae = test: Clearance of non-typable H influenzae from the lungs of rats fed L acidophilus; format: in vivo, DA rats
Experimental: DA rats (200-250 gm, 8-10 weeks old, Animal Resource Centre, Perth, Wash.) were fed intragastrically L acidophilus in 0.75 mL PBS (2.5×10^10 per rat) or PBS alone every 2 days for 7 days at which time the rats were immuniised with formalin-killed H influenzae ([…]) administered intralumenally (see groups below). Rats continued to be fed every 2 days for 2 weeks and then boosted with 50 μL of formalin killed H influenzae (5×10^8 per rat) administered by the intratracheal route. After further feeding with L acidophilus for a further 7 days, the rats were challenged with 50 μL of live 5×10^8 H influenzae in the lung.
Immunisation Groups (5 Rats/Group):
2H influenzae (intralumenal)+H influenzae (intra-tracheal boost)
3 PBS (intralumenal)+L. acidophilus fed every 2 days
4H influenzae (intralumenal)+H influenzae (intratracheal boost)+L. acidophilus fed every 2 days
After 4 hrs post challenge, the rats were sacrificed and the levels of colonisation in the lung was examined in bronchial lavage (BAL) and lung homogenate (LH). The level of clearance was determined by a plating serial 10-fold dilutions of the lavage fluid or lung homogenate onto chocolate agar plates. The results were expressed as number of colony forming units (CFU.

IFN-γ [1] = test: IFN-γ production by OVA-stimulated spleen lymphocytes of mice fed L. acidophilus (ELISA); format: in vivo, C57/BI6 mice; details: fed intragastrically, OVA-sensitised; spleen lymphocytes stimulated with OVA 5 μg/mL for 4 days; FIG. 1B
Experimental: (§2) To determine whether probiotic bacteria down-regulate Th2 and up-regulate Th1 cytokine response, C57/BI6 mice were fed intragastrically using a feeding needle, various numbers of Lactobacillus acidophilus (obtained from University of New South Wales, School of Microbiology and Immunology Culture Collection, Sydney, Australia) on consecutive days for 2 weeks after which they were sensitised with 8 μg of ovalbumin (OVA) and aluminium hydroxide in 0.2 mL phosphate-buffered saline administered by peritoneal injection. The mice were further fed ten times with L. acidophilus every two days for two weeks before they were sacrificed. Lymphocytes were isolated by teasing spleens through a sieve, washed with PBS, and resuspended at 10×10^6 One mL aliquots of the cell suspension were dispensed into wells of a 24-well flat-bottomed microtitre plate and stimulated with OVA (5 μg/mL). After incubation for 4 days the supernatants were collected and assayed for IL-4 and IFN-γ production by standard ELISA techniques using IL-4 or IFN-γ monoclonal antibody pairs. Briefly, wells of a 24-well microtitre plate were coated with a capture anti-IL-4 antibody. […] The colour development was read at 450/620 nm in an ELISA plate reader. The level of IL-4 in unknown samples was quantitated by interpolation using a standard curve. […]

Salmonella typhimurium = test: Translocation of Salmonella typhimurium to spleen in mice fed L acidophilus (VRI 011) and given killed Salmonella vaccine; format: in vivo, BALB/c mice
From the text: Female BALB/c mice 6-8 weeks old were obtained from the Animal Resource Centre, Perth, Wash. Lactobacillus acidophilus strain (VRI 011) and the pathogen Salmonella tyhimurium were obtained from the School of Microbiology and Immunology Type Culture Collection, University of New South Wales.
Mice were given 5 doses of L acidophilus (VRI 011) (1×10^8 cfu per dose) or PBS over a 2 week period after which time mice were immunised intragastrically with a killed oral Salmonella vaccine. Two weeks after immunisation, the mice were sacrificed and the spleens collected for enumeration of L acidophilus and S tyhimurium.

NO = test: Nitric oxide (NO) secretion in saliva after Candida albicans challenge (Griess reaction); format: in vivo, DBA/2 mice; details: oral 5×10^9 CFU, FIG. 2
Experimental: as §1, with “(n=3 to 5 per group) were fed Lactobacillus acidophilus and then challenged with Candida albicans as described in Example 3 below. At various times following oral infusion, saliva was collected after injection with pilocarpine to stimulate saliva flow. The concentration of NO in saliva was determined by the Griess reaction according to the method by Gree et al (1982) Anal. Biochem 126:131-138. DBA/2 mice […]” for “H2d”

[2] = test system: H. pylori (Sydney strain 1); test: Clearance of pre-established H. pylori stomach infection in mice dosed with L. acidophilus; format: in vivo, C57BL/6 mice
Experimental: Two groups of 5 female C57BL/6 mice were infected with H. pylon (Sydney strain 1) by administration of approx. 10^9 live H. pylori on three consecutive days (days 1, 2 and 3) by gavage. On days 28, 30, 32, 35, 37 and 39 mice were dosed by gavage with live L. acidophilus (5×10^9 in 0.2 mL water) or water (control group).
Twenty-one days later ([…]) mice were killed by pentobarbitone overdose (administered intra-peritoneally) and their stomachs removed. The stomach was dissected into two equal halves and one half was placed in 1 mL of deionised water and homogenised. Serial 10-fold dilutions of stomach homogenate were plated out on chocolate agar plates containing fungizone, vancomycin, bacitracin and nalidixic acid. After incubation for 3 days at 37° C. under microaerophilic conditions, the colonies were counted and the total number of live H. pylori in the original stomach homogenate determined.

IFN-γ [3] = test: IFN-γ in saliva and cervical lymph node cells after C. albicans challenge (ELISA); format: in vivo, DBA/2 mice
Experimental: A further study on responses to Candida albicans infection was conducted in the model described in Example 3.
Candida antigen was prepared from freshly cultured Candida albicans by sonication in a MSE Soniprep. The sonicate was centrifuged for 10 min at 2000 g after which time the supernatant was collected and dialysed against PBS. After protein estimation, the solution was filtered sterilised and stored at −20° C. until needed.
A single cell suspension of cervical lymph node (CLN) cells was prepared by teasing lymph node tissue through a sieve. The cells were collected in RPMI 1640 medium supplemented with 10% foetal calf serum (FCS), washed twice by centrifugation and cultured at 4×10^6 cells per well in the presence of 2.5 μg/mL of Candida antigen in a 24-well plate for 3 days.
The culture supernatants were collected and assayed for IL-4, IL-12 and IFN-γ by ELISA using matched antibody pairs and recombinant cytokines as standards (Pharmingen, San Diego, Calif.). The sensitivity of the cytokine ELISA was […] and the results were expressed in net amounts from which the background was subtracted.
Samples of saliva were obtained according to the procedure described in example 2.

IL-4 = IL-4 production by OVA-stimulated spleen lymphocytes of mice fed L. acidophilus (ELISA); format: in vivo, C57/BI6 mice; details: fed intragastrically, OVA-sensitised; spleen lymphocytes stimulated with OVA 5 μg/mL for 4 days; FIG. 1A
Experimental: as §2

S typhimurium = test: Translocation of S typhimurium to spleen in mice fed L fermentum and vaccinated with killed oral Salmonella vaccine; format: in vivo, BALB/c mice; details: for S typhimurium in spleen (±SEM): live oral challenge
Experimental: BALB/c female mice (6-8 weeks old) were fed 10^8 L fermentum VRI012 (obtained from University of New South Wales, School of Microbiology and Immunology Culture Collection, Sydney, Australia) before or co-administered with 10^8 killed S typhimurium vaccine four times over a 2 week period. Two weeks after oral administration, the mice were challenged with live S typhimurium administered by the oral route. After sacrifice, the level of colonisation with S typhimurium in the spleen was determined.

[4] = test system: Non-typeable Haemophilus influenzae (NTHi); test: Clearance of NTHi from lungs of rats given a single intraduodenal dose of L. fermentum; format: in vivo, dark agouti (DA) rats
Experimental: Groups of 6 male, specific pathogen free, dark agouti (DA) rats were given a single dose of PBS or live L. fermentum (2.5×10^10) directly into the duodenal lumen after exposure of the intestine by laparotomy. Twenty-one days later the rats were infected intratracheally with 5×10^8 live Non-typeable Haemophilus influenzae (NTHi). Four hours later the rats were killed by pentobarbitone overdose. The lungs were lavaged with 10 mL PBS to obtain broncho-alveolar lavage fluid (BAL). The lavaged lungs were then homogenised in 10 mL of PBS. Twenty microlitres of ten-fold serial dilutions of BAL and lung homogenate (LH) were plated on chocolate agar plates and incubated in a 10% CO2 incubator at 37° C. overnight. Colonies were counted and the number of live bacteria in the BAL and LH preparations determined. The recovery of live NTHi bacteria, presented as colony forming units (CFU), was as follows: […]

With `CC(=O)O.CNC(=N)NCCC[C@H](N)C(=O)O` [MNLA, NG-monomethyl-L-arginine monoacetate] the “clearance of yeasts compared with untreated mice” value (C albicans) was “delayed clearance of yeasts”.

With `Cc1ncc([N+](=O)[O-])n1CCO` [Metronidazole, reference compound] the H. pylori colonisation (Helicobacter pylori) was 11.4 ± 2.5 ×10^5 CFU/animal, the “% eradication” value (Helicobacter pylori) was 55^b % and the “% eradication” value (Helicobacter pylori; listed as metronidazole) was 55%.

In the case of “Lactobacillus acidophilus [L. acidophilus]”, the “resistance to C. albicans infection (oral mucosa CFU) compared to mice fed PBS” value (Candida albicans; all time points, FIG. 5) is reported as “more resistant to infection at all time points”, the “clearance of yeasts from oral cavity by day 6” value (Candida albicans; day 6) is reported as “almost completely cleared” and the “BAL H influenzae” value (H influenzae; bronchial lavage, 4 hrs post challenge with 5×10^8 live H influenzae) is reported as 0.7 ± 0.3 CFU/mL × 10^8. The “LH H influenzae” value (H influenzae; lung homogenate, 4 hrs post challenge with 5×10^8 live H influenzae) was 12.5 ± 5.7 CFU/mL × 10^6, the “resistance to H influenzae infection in the lungs” value (H influenzae; rats fed L acidophilus and immunised with killed H influenzae) was “more resistance to infection” and the “resistance to infection, repeated oral doses versus single bolus” value (H influenzae; repeated oral feeding compared with a single bolus) was “more resistant to infection than rats given a single bolus”. For the same compound, the “production of IFN-γ” value (IFN-γ [1]) was “enhanced”, the “protection against translocation of S typhimurium compared with mice fed PBS” value (Salmonella typhimurium; fed before or simultaneously with killed oral S typhimurium vaccine, live oral challenge) was “better protection against translocation” and the “effect of feeding on the vaccine-induced decrease of translocation” value (Salmonella typhimurium; feeding in addition to killed oral vaccine) was “further enhanced”. For the same compound, the “secretion of NO into saliva, early after challenge” value (NO; early after C. albicans challenge) was “increased”, the “secretion of NO into saliva, later stage” value (NO; later stage after C. albicans challenge) was “significantly reduced” and the “Number of H. pylori in stomach homogenate” value ([2]; 5×10^9 by gavage on days 28-39 after infection, killed day 50) was 105 ± 14 10^4 CFU. The “level of H. pylori infection of the stomach versus control mice” value ([2]; therapeutic dosing on pre-established infection) was “lower level of H. pylori infection”, the “onset of IFN-γ response after C. albicans challenge” value (IFN-γ [3]; fed mice challenged with C. albicans, controls no detectable IFN-γ until day 6) was “early response (day 2)” and the “IFN-γ response in uninfected mice” value (IFN-γ [3]; fed mice, no C. albicans challenge, FIGS. 6 and 7) was “no IFN-γ response”. The “duration of IFN-γ response after C. albicans challenge versus controls not fed” value (IFN-γ [3]; still seen in nodes at day 15 and in saliva at day 8) was “more sustained IFN-γ response”, the H. pylori colonisation (Helicobacter pylori) was 10.5 ± 1.4 ×10^5 CFU/animal and the “% eradication” value (Helicobacter pylori) was 58^a %. For the same compound, the “% eradication” value (Helicobacter pylori; listed as probiotic) was 58% and the IL-4 production (IL-4) was “suppression of IL-4 production in dose-dependent manner”.

For Lactobacillus fermentum [L. fermentum], the “S typhimurium in spleen (±SEM)” value (S typhimurium; 10^8 co-administered with 10^8 killed S typhimurium vaccine) was 4.5 ± 0.22 p < 0.05 vs Control Log CFU/g wet wt, the “S typhimurium in spleen (±SEM)” value (S typhimurium; 10^8 fed before 10^8 killed S typhimurium vaccine) was 3.8 ± 0.12 p < 0.05 vs Control Log CFU/g wet wt and the “level of translocation compared with mice fed PBS” value (S typhimurium; fed prior to immunisation or co-administered with killed S typhimurium) was “low levels of translocation”. For the same compound, the “LH, live NTHi recovered” value ([4]; lung homogenate, CFU, single dose 2.5×10^10 into duodenal lumen, challenge day 21, 4 hours) was 0.82 ± 0.37 p = 0.017* 10^6, the “BAL CFU, live NTHi recovered” value ([4]; single dose 2.5×10^10 into duodenal lumen, challenge day 21, 4 hours) was 0.49 ± 0.19 CFU (10^6) and the “clearance of acute NTHi respiratory infection” value ([4]; single dose delivered to the gut) was “enhanced clearance”.
